According to ChEMBL document CHEMBL1148587, “Imidazo[1,2-a]pyrimidines as functionally selective and orally bioavailable GABA(A)alpha2/alpha3 binding site agonists for the treatment of anxiety disorders” (J Med Chem, 2006):
The source made the active and inactive calls. The rule behind the calls is not given here.

Columns and labels:
[1] = Half life in rat; assay type: ADME, organism-based; conditions: in vivo
[2] = Half life in dog; assay type: ADME, organism-based, Canis lupus familiaris; conditions: in vivo
[3] = target: T1, GABA-A receptor; alpha-1/beta-3/gamma-2 (Homo sapiens, UniProt P14867+P18507+P28472); experiment: Displacement of [3H]-Ro15-1788 from human recombinant GABAA alpha1 in combination with beta-3-gamma-2 expressed in L(tk-) cells; assay type: cell-based
T1 sequence (P14867 whole entry): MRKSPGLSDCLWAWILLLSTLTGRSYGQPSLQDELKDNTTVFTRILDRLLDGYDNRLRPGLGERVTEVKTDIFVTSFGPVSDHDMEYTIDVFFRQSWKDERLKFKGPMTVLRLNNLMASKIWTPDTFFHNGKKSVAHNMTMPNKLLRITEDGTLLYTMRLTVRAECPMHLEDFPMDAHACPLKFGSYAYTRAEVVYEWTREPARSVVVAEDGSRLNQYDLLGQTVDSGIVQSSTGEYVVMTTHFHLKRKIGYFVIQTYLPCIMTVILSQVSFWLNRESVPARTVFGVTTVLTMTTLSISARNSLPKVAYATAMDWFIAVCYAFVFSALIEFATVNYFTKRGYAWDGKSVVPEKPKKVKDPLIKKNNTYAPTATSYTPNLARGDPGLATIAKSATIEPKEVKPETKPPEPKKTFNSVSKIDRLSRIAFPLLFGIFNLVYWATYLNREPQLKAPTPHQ
T1 sequence (P18507 whole entry): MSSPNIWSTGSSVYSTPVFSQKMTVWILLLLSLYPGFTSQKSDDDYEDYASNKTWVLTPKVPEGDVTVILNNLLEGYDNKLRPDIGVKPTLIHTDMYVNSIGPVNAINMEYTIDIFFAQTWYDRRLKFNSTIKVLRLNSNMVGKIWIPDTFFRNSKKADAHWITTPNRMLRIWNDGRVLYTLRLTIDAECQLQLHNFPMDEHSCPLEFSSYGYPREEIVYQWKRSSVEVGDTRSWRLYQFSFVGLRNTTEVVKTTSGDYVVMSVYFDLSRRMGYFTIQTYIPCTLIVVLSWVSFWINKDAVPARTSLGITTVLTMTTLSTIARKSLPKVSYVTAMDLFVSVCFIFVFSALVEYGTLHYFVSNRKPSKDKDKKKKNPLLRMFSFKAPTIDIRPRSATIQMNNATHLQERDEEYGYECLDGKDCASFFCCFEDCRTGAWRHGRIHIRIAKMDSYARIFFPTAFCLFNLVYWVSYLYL
T1 sequence (P28472 whole entry): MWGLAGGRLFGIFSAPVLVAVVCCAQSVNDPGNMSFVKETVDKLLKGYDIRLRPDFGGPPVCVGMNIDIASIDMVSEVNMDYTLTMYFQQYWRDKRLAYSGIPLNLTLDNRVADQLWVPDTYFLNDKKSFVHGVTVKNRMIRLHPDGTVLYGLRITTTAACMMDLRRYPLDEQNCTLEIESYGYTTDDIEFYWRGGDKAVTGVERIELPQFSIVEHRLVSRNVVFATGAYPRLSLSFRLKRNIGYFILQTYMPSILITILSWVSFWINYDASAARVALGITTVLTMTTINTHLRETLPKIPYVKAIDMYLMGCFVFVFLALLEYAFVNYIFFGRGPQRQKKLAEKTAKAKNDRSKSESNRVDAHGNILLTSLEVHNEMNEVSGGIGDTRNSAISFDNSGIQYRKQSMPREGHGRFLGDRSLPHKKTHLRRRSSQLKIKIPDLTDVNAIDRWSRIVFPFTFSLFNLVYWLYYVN

[4] = target: T2, GABA-A receptor; alpha-2/beta-3/gamma-2 (Homo sapiens, UniProt P18507+P28472+P47869); experiment: Displacement of [3H]-Ro15-1788 from human recombinant GABAA alpha2 in combination with beta3gamma2 expressed in L(tk-) cells; assay type: cell-based
T2 sequence (P18507 whole entry): T1 sequence (P18507 whole entry)
T2 sequence (P28472 whole entry): T1 sequence (P28472 whole entry)
T2 sequence (P47869 whole entry): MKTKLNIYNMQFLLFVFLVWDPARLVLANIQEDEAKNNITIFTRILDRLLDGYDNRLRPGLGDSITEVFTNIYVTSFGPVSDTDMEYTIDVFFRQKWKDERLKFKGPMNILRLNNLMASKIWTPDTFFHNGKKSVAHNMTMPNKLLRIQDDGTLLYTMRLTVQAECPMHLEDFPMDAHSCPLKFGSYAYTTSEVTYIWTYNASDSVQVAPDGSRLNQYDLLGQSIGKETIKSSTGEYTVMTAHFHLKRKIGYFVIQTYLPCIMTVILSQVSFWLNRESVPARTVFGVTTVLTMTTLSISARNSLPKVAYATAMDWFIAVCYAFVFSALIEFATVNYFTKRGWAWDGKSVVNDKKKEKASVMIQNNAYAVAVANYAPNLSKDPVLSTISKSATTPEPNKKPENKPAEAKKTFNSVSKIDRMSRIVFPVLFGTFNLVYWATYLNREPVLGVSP

[5] = target: T3, GABA-A receptor; alpha-5/beta-3/gamma-2 (Homo sapiens, UniProt P18507+P28472+P31644); experiment: Displacement of [3H]Ro-151788 from human recombinant GABAA alpha5 in combination with beta3gamma2 expressed in L(tk-) cells; assay type: cell-based
T3 sequence (P18507 whole entry): T1 sequence (P18507 whole entry)
T3 sequence (P28472 whole entry): T1 sequence (P28472 whole entry)
T3 sequence (P31644 whole entry): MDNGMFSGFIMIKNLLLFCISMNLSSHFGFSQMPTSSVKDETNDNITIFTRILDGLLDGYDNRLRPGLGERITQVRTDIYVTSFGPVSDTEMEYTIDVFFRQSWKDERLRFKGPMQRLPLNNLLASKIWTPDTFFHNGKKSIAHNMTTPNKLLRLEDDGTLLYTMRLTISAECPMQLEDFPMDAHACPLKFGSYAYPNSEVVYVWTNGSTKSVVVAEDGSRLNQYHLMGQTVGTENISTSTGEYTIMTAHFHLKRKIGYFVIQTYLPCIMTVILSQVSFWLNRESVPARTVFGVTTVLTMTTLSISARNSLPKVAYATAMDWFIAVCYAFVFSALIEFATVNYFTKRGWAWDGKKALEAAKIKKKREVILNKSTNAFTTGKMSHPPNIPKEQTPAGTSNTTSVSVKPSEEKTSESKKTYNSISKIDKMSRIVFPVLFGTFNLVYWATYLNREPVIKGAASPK

[6] = target: GABA-A receptor; alpha-1/beta-3/gamma-2 (Homo sapiens) (UniProt P14867+P18507+P28472); experiment: Efficacy against human recombinant GABAA alpha-1 in combination with beta3gamma2 expressed in L(tk-) cells by whole cell patch clamp method; assay type: functional, cell-based
[7] = target: GABA-A receptor; alpha-3/beta-3/gamma-2 (Homo sapiens) (UniProt P18507+P28472+P34903); experiment: Efficacy against human recombinant GABAA alpha3 in combination with beta-3-gamma-2 expressed in L(tk-) cells by whole cell patch clamp method; assay type: functional, cell-based
[8] = tested on: Squirrel monkey; experiment: Anxiolytic activity in squirrel monkey conditioned emotional response test at 0.3 mg/kg, po; assay type: functional, organism-based; parameters: dose 0.3 mg/kg; conditions: Saimiri sciureus
[9] = tested on: Squirrel monkey; experiment: Anxiolytic activity in squirrel monkey conditioned emotional response test at 3 mg/kg, po; assay type: functional, organism-based; parameters: dose 3 mg/kg; conditions: Saimiri sciureus
[10] = target: GABA-A receptor; anion channel (Rattus norvegicus) (UniProt O09028+P15431+P18506+P18508+P19969+P20236+P23574+P23576+P28471+P28473+P30191+P62813+P63079+P63138+Q91ZM7+Q9ES14); experiment: (§1) Displacement of [3H]Ro-151788 from central benzodiazepine binding site in rat administered po; assay type: functional
[11] = target: GABA-A receptor; anion channel; experiment: as §1; assay type: functional

| half-life [1] | half-life [2] | Ki [3] | Ki [4] | Ki [5] | Efficacy [6] | Efficacy [7] | ID50 [10] | EC50 [11] | SMILES | Activity [8] | Activity [9] |
| --- | --- | --- | --- | --- | --- | --- | --- | --- | --- | --- | --- |
| 7.3 h | 32 h | 1.2 nM | 1 nM | 0.5 nM | -2% | 25% | 0.27 mg/kg | 19 nM | N#Cc1cc(F)ccc1-c1cc(-c2cnc3nc(C(F)(F)F)ccn23)ccc1F | Active | Active |
| 1.7 h | 0.7 h | 0.85 nM | 3.7 nM | 0.53 nM | 6.2% | 57% | 0.84 mg/kg | 580 nM | CC(C)(O)c1ccn2c(-c3ccc(F)c(-c4cccnc4)c3)cnc2n1 | Active | Active |
